Test results taken from ChEMBL document CHEMBL3885861, “Open TG-GATES”.

Organism: Rattus norvegicus
Assay: Open TG-GATES - Regimen: Single
Format: toxicity, organism-based, Sprague-Dawley
Parameters: regimen Single, gender Male, age 6 weeks
Conditions: in vivo, po, 0 mg/kg, route gavage, dose level Control; for APTT / Bas / Eos / Fbg / Hb / Ht / Lym / MCH / MCHC / MCV / Mono / Neu / PT / Plat / RBC / Ret / WBC: tissue Blood; for KIDNEY_L / KIDNEY_R / KIDNEY_TOTAL: tissue Kidney; for LIVER: tissue Liver; for A/G / ALP / ALT / AST / BUN / CRE / Ca / Cl / DBIL / GLC / IP / K / LDH / Na / PL / RALB / TBIL / TC / TG / TP / gamma-GTP: tissue Plasma

SMILES: OCCOCCN1CCN(C(c2ccccc2)c2ccc(Cl)cc2)CC1 (configuration not stated) [HYDROXYZINE]
- TERMINAL_BW (3 h): 191.8 g
- APTT (3 h): 16.4 s
- Bas (3 h): 0%
- Eos (3 h): 0.8%
- Fbg (3 h): 287 mg/dL
- Hb (3 h): 13.2 g/dL
- Ht (3 h): 41%
- Lym (3 h): 78%
- MCH (3 h): 21.5 pg
- MCHC (3 h): 32.3%
- MCV (3 h): 66.6 fL
- Mono (3 h): 3%
- Neu (3 h): 17.4%
- PT (3 h): 15.4 s
- Plat (3 h): 120.7 x10_4/uL
- RBC (3 h): 616 x10_4/ul
- Ret (3 h): 8.7%
- WBC (3 h): 71.8 x10_2/uL
- KIDNEY_L (3 h): 0.9 g
- KIDNEY_R (3 h): 0.9 g
- KIDNEY_TOTAL (3 h): 1.7 g
- LIVER (3 h): 8.6 g
- A/G (3 h): 0.8
- ALP (3 h): 1501.4 IU/L
- ALT (3 h): 41 IU/L
- AST (3 h): 73 IU/L
- BUN (3 h): 9 mg/dL
- CRE (3 h): 0.2 mg/dL
- Ca (3 h): 10.9 mg/dL
- Cl (3 h): 106 meq/L
- DBIL (3 h): 0.012 mg/dL
- GLC (3 h): 176.8 mg/dL
- IP (3 h): 9.2 mg/dL
- K (3 h): 4.2 meq/L
- LDH (3 h): 61.8 IU/L
- Na (3 h): 141.8 meq/L
- PL (3 h): 138.6 mg/dL
- RALB (3 h): 2.5 g/dL
- TBIL (3 h): 0.056 mg/dL
- TC (3 h): 75.4 mg/dL
- TG (3 h): 68.8 mg/dL
- TP (3 h): 5.4 g/dL
- gamma-GTP (3 h): 1 IU/L
- TERMINAL_BW (6 h): 194.9 g
- APTT (6 h): 16.3 s
- Bas (6 h): 0%
- Eos (6 h): 0.4%
- Fbg (6 h): 298.6 mg/dL
- Hb (6 h): 13.1 g/dL
- Ht (6 h): 40.8%
- Lym (6 h): 76.2%
- MCH (6 h): 21.7 pg
- MCHC (6 h): 32.1%
- MCV (6 h): 67.5 fL
- Mono (6 h): 2.4%
- Neu (6 h): 20.4%
- PT (6 h): 15.3 s
- Plat (6 h): 116.6 x10_4/uL
- RBC (6 h): 604 x10_4/ul
- Ret (6 h): 9%
- WBC (6 h): 60.3 x10_2/uL
- KIDNEY_L (6 h): 0.9 g
- KIDNEY_R (6 h): 0.9 g
- KIDNEY_TOTAL (6 h): 1.8 g
- LIVER (6 h): 8.5 g
- A/G (6 h): 0.9
- ALP (6 h): 1502.2 IU/L
- ALT (6 h): 36.4 IU/L
- AST (6 h): 68.8 IU/L
- BUN (6 h): 9.2 mg/dL
- CRE (6 h): 0.2 mg/dL
- Ca (6 h): 10.9 mg/dL
- Cl (6 h): 105.2 meq/L
- DBIL (6 h): 0.012 mg/dL
- GLC (6 h): 183.6 mg/dL
- IP (6 h): 9.9 mg/dL
- K (6 h): 4.2 meq/L
- LDH (6 h): 56.2 IU/L
- Na (6 h): 141.6 meq/L
- PL (6 h): 147.6 mg/dL
- RALB (6 h): 2.5 g/dL
- TBIL (6 h): 0.058 mg/dL
- TC (6 h): 81.4 mg/dL
- TG (6 h): 52.6 mg/dL
- TP (6 h): 5.3 g/dL
- gamma-GTP (6 h): 0.8 IU/L
- TERMINAL_BW (9 h): 191 g
- APTT (9 h): 16.5 s
- Bas (9 h): 0%
- Eos (9 h): 0.8%
- Fbg (9 h): 260.4 mg/dL
- Hb (9 h): 12.9 g/dL
- Ht (9 h): 39.9%
- Lym (9 h): 73.4%
- MCH (9 h): 20.5 pg
- MCHC (9 h): 32.4%
- MCV (9 h): 63.5 fL
- Mono (9 h): 2.6%
- Neu (9 h): 22.4%
- PT (9 h): 15.2 s
- Plat (9 h): 110.7 x10_4/uL
- RBC (9 h): 631.2 x10_4/ul
- Ret (9 h): 8.2%
- WBC (9 h): 82.7 x10_2/uL
- KIDNEY_L (9 h): 0.9 g
- KIDNEY_R (9 h): 0.9 g
- KIDNEY_TOTAL (9 h): 1.8 g
- LIVER (9 h): 7.9 g
- A/G (9 h): 0.9
- ALP (9 h): 1265.6 IU/L
- ALT (9 h): 38 IU/L
- AST (9 h): 75 IU/L
- BUN (9 h): 9.4 mg/dL
- CRE (9 h): 0.1 mg/dL
- Ca (9 h): 10.6 mg/dL
- Cl (9 h): 105.4 meq/L
- DBIL (9 h): 0.012 mg/dL
- GLC (9 h): 176.2 mg/dL
- IP (9 h): 10.1 mg/dL
- K (9 h): 4.2 meq/L
- LDH (9 h): 55.4 IU/L
- Na (9 h): 142 meq/L
- PL (9 h): 129.4 mg/dL
- RALB (9 h): 2.5 g/dL
- TBIL (9 h): 0.068 mg/dL
- TC (9 h): 76.8 mg/dL
- TG (9 h): 21 mg/dL
- TP (9 h): 5.4 g/dL
- gamma-GTP (9 h): 1 IU/L
- TERMINAL_BW (24 h): 204.1 g
- APTT (24 h): 15.6 s
- Bas (24 h): 0.2%
- Eos (24 h): 0.8%
- Fbg (24 h): 275.8 mg/dL
- Hb (24 h): 13.1 g/dL
- Ht (24 h): 40.4%
- Lym (24 h): 80.2%
- MCH (24 h): 21.6 pg
- MCHC (24 h): 32.6%
- MCV (24 h): 66.3 fL
- Mono (24 h): 2.6%
- Neu (24 h): 15.8%
- PT (24 h): 16 s
- Plat (24 h): 114.8 x10_4/uL
- RBC (24 h): 609.2 x10_4/ul
- Ret (24 h): 7.1%
- WBC (24 h): 63.9 x10_2/uL
- KIDNEY_L (24 h): 0.9 g
- KIDNEY_R (24 h): 0.9 g
- KIDNEY_TOTAL (24 h): 1.8 g
- LIVER (24 h): 9.3 g
- A/G (24 h): 0.9
- ALP (24 h): 1738.8 IU/L
- ALT (24 h): 43.4 IU/L
- AST (24 h): 71 IU/L
- BUN (24 h): 14.8 mg/dL
- CRE (24 h): 0.1 mg/dL
- Ca (24 h): 11.2 mg/dL
- Cl (24 h): 106.6 meq/L
- DBIL (24 h): 0.014 mg/dL
- GLC (24 h): 176.8 mg/dL
- IP (24 h): 7.6 mg/dL
- K (24 h): 4.5 meq/L
- LDH (24 h): 64.4 IU/L
- Na (24 h): 141.4 meq/L
- PL (24 h): 147.8 mg/dL
- RALB (24 h): 2.6 g/dL
- TBIL (24 h): 0.056 mg/dL
- TC (24 h): 75.2 mg/dL
- TG (24 h): 75.4 mg/dL
- TP (24 h): 5.7 g/dL
- gamma-GTP (24 h): 0.8 IU/L
